Reference: US9980980B2, “Compounds, compositions and methods for protecting brain health in neurodegenerative disorders” (Amazentis SA, priority 2009, dated 2018)

target: T1, Aβ(25-35) (Homo sapiens, UniProt P05067); experiment: Screening assay for inhibition of Aβ(25-35) aggregation (Thioflavin-T fluorescence); assay type: biochemical; conditions: molecule at purity above 90%; ThT fluorescence, 25° C., 0-120 minutes; read-out: IC50 for inhibiting aggregation of Aβ25-35
T1 construct: Monomeric Aβ(25-35) purchased from Bachem Pharma; purchased Bachem Pharma
Procedure: Monomeric Aβ(25-35) purchased from Bachem Pharma, was dissolved in distilled sterile water at 4° C., then sonitcated for about 1 minute. The peptide stock solution was then aliquoted and stored at −20° C. All steps were carried out at 4° C. to prevent Aβ(25-35) polymerization.
Fractions of polyphenols were all standardized to 10 μg/mL, before being assessed and stored at −20° C. Measurement of inhibition was performed by following the kinetic of Aβ(25-35) polymerization in a reaction mixture containing 70 μL phosphate buffer, 10 μL Thioflavin-T (100 μM stock solution), 10 μL MeOH (10 mM final concentration) pH 7.2 and 10 μL of Aβ(25-35) (100 μM final concentration) adapting known in the art procedures. LeVine, H., 3rd (1993). “Thioflavine T interaction with synthetic Alzheimer's disease beta-amyloid peptides: detection of amyloid aggregation in solution.” Protein Sci. 2(3): 404-10. When Aβ(25-35) was added to the buffer solution, the solution was sonicated for an additional minute.
To study the inhibitory activity of the fractions, the extracts were diluted to the final concentration in MeOH and 10 μL was added to the mixture at 4° C. Fluorescence spectroscopy was recorded with the excitation at 450 nm and emission at 490 nm. The polymerization kinetics was monitored at 25° C. between 0 and 120 minutes. The IC50 was calculated by using a least-square fitting technique to match the experimental data with a sigmoidal curve. The IC50 was the effective concentration dose of the compound inhibiting the formation of Aβ fibrils to 50% of the control value.

Going from `O=C1OC[C@H]2OC(O)[C@H](O)[C@@H](O)[C@@H]2OC(=O)c2cc(O)c(O)c(O)c2-c2c(O)c(O)c3oc(=O)c4c(c(O)c(O)c5oc(=O)c2c3c54)-c2c1cc(O)c(O)c2O` (mixture of isomers) [Punicalin] to `O=C(O[C@@H]1O[C@@H]2COC(=O)c3cc(O)c(O)c(O)c3-c3c(cc(O)c(O)c3O)C(=O)O[C@H]([C@H]1O)[C@@H]2O)c1cc(O)c(O)c(O)c1` [Corilagin], the IC50 rises from 10 µM to 65 µM (6.5-fold).

Going from `O=C1OC[C@H]2OC(O)[C@@H]3OC(=O)c4cc(O)c(O)c(O)c4-c4c(cc(O)c(O)c4O)C(=O)O[C@H]3[C@@H]2OC(=O)c2cc(O)c(O)c(O)c2-c2c1cc(O)c(O)c2O` (stereo partly drawn) [Pedunculagin] to Tellimagrandin, the IC50 falls from 11 µM to 6.8 µM (1.6-fold). The second is the more potent here.

With `O=C1O[C@H]2[C@@H]3OC(=O)c4cc(O)c(O)c(O)c4-c4c(O)c(O)c5oc(=O)c6c(c(O)c(O)c7oc(=O)c4c5c76)-c4c(cc(O)c(O)c4O)C(=O)OC[C@H]3OC(O)[C@@H]2OC(=O)c2cc(O)c(O)c(O)c2-c2c1cc(O)c(O)c2O` (mixture of isomers) [Punicalagin] the IC50 was 6 µM.

test system: PC12 cells; experiment: Inhibition of Aβ-oligomer induced neuronal cell death in PC12 cells (MTT); assay type: cell-based, Rat; conditions: pre-aggregated Aβ (25-35) 10 μM, 24 h; MTT cell viability
Procedure: The fractions that were able to inhibits oligomer formation were also tested for their ability to inhibit Aβ-oligomer induced neuronal cell death using […], a well known and accepted model of neuronal cell culture.
Beta Amyloid peptide (Aβ) 25-35 trifluoroacetate salt (ref H-1192, lot 2000718) was purchased from Bachem (Bubebdorf, Switzerland). Thiazolyl Blue Tetrazolium Bromide (MTT, ref. M2128) was purchased from Sigma-Aldrich (Saint-Quentin Fallvier, France). Albumin Bovine Fraction V (BSA, ref 160069) was purchased from MPBio (Irvine, USA).
Cells: Rat Pheochromocytoma cells (PC12) were maintained in DMEM (4.5 g/L glucose) supplemented with 10% Horse Serum (HS), 5% Fetal Bovine Serum (FCS) and 100 U/mL penicillin and 100 μg/mL Streptomycin at 37° C. under 5% CO2.
Preparation of Aβ (25-35): It has been reported that Aβ oligomers are more toxic to neurons than monomers. […]
Determination of Hydro-Alcoholic Pomegranate Extracts Ability to Protect PC12 Cells Against Aβ Insult: The ability of Pomegranate extracts to protect PC12 cells from Aβ (25-35) oligomer induced toxicity was determined by measuring reduction of MTT to MTT formazan, which reflects cell viability. […] The level of MTT reduction and thus cell viability was determined by a colorimetric assay measuring the optical density at 595 nm using a microplate reader (BioTek EL808).

`O=C1O[C@H]2[C@@H]3OC(=O)c4cc(O)c(O)c(O)c4-c4c(O)c(O)c5oc(=O)c6c(c(O)c(O)c7oc(=O)c4c5c76)-c4c(cc(O)c(O)c4O)C(=O)OC[C@H]3OC(O)[C@@H]2OC(=O)c2cc(O)c(O)c(O)c2-c2c1cc(O)c(O)c2O` (mixture of isomers) [Punicalagin] was tested, and the “protection of PC12 neuronal cells from the toxicity of Aβ (25-35) oligomers” value was “responsible for the observed activity”.
